Results from patent US20160158200A1, “Combinations of Hepatitis C Virus Inhibitors” (priority 2013, published 2016).

Tested on: HCV genotype-1a variant with glutamine 30 changed to glutamate in the NS5A protein
Format: cell-based
Settings: test compound titrated with BMS-790052 fixed at 200 nM; genotype 1a Q30E replicon
Summary of the method: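 Synergy was assessed by combining several fixed amounts of an NS5A-targeting compound with a titration of the second compound of interest.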

Row | SMILES | Fold-Synergistic 1a (Q30E)
1 | CC(C)(C)[C@H](NC(=O)C(=O)N1CCCCCC1)c1nc(-c2ccc(-c3ccc(-c4c[nH]c([C@@H](NC(=O)C(=O)N5CCCCCC5)C(C)(C)C)n4)cc3)cc2)c[nH]1 [Compound W-32] | >100 fold
2 | CC(C)CC(=O)N1[C@@H]2C[C@@H]2C[C@H]1c1nc(-c2ccc(-c3ccc(-c4c[nH]c([C@@H]5C[C@H]6C[C@H]6N5C(=O)CC(C)C)n4)cc3)cc2)c[nH]1 [Compound P-50] | <10 fold
3 | CC(C)(C)C(=O)N[C@H](c1ncc(-c2ccc(-c3ccc(-c4cnc([C@@H](NC(=O)C(C)(C)C)C(C)(C)CF)[nH]4)cc3)cc2)[nH]1)C(C)(C)CF [Compound Y-68] | >100 fold
4 | CC(C)(C)[C@H](NC(=O)c1ccncc1F)c1nc(-c2ccc(-c3ccc(-c4c[nH]c([C@@H](NC(=O)c5ccncc5F)C(C)(C)C)n4)cc3)cc2)c[nH]1 [Compound P-24] | >100 fold
5 | O=C(c1ccc2c(c1)OCO2)N1CCC[C@H]1c1ncc(-c2ccc(-c3ccc(-c4cnc([C@@H]5CCCN5C(=O)c5ccc6c(c5)OCO6)[nH]4)cc3)cc2)[nH]1 [Compound S-121] | <10 fold
6 | CC(C)(C)CC(=O)NC1(C(=O)N[C@H](c2nc(-c3ccc(-c4ccc(-c5c[nH]c([C@@H](NC(=O)C6(NC(=O)CC(C)(C)C)CCCCC6)C(C)(C)C)n5)cc4)cc3)c[nH]2)C(C)(C)C)CCCCC1 [Compound W-254] | >100 fold
7 | CC(C)(C)OC(=O)N1CCC(F)(F)C[C@H]1C(=O)N[C@H](c1nc(-c2ccc(-c3ccc(-c4c[nH]c([C@@H](NC(=O)[C@@H]5CC(F)(F)CCN5C(=O)OC(C)(C)C)C(C)(C)C)n4)cc3)cc2)c[nH]1)C(C)(C)C [Compound L-21] | >100 fold
8 | CC(C)[C@H](NC(=O)C(=O)C1CC2CCC(C1)C2(F)F)c1ncc(-c2ccc(-c3ccc(-c4cnc([C@@H](NC(=O)C(=O)C5CC6CCC(C5)C6(F)F)C(C)C)[nH]4)cc3)cc2)[nH]1 (stereo partly drawn) [Compound P-129] | >100 fold
9 | COC(C)(CCOCc1ccccc1)C(=O)N[C@H](c1nc(-c2ccc(-c3ccc(-c4c[nH]c([C@@H](NC(=O)C(C)(CCOCc5ccccc5)OC)C(C)(C)C)n4)cc3)cc2)c[nH]1)C(C)(C)C (single isomer, unassigned) [Compound W-256b] | >100 fold
10 | COc1ccccc1C(O)CC(=O)N[C@H](c1nc(-c2ccc(-c3ccc(-c4c[nH]c([C@@H](NC(=O)C5(C(O)c6ccccc6OC)CC5)C(C)(C)C)n4)cc3)cc2)c[nH]1)C(C)(C)C (single isomer, unassigned) [Compound N-135B] | >100 fold
11 | CC(C)(C)[C@H](NC(=O)C1CC12CCOCC2)c1ncc(-c2ccc(-c3ccc(-c4cnc([C@@H](NC(=O)C5CC56CCOCC6)C(C)(C)C)[nH]4)cc3)cc2)[nH]1 (single isomer, unassigned) [Compound B71] | >100 fold
12 | COC(C)(COCc1ccccc1)C(=O)N[C@H](c1nc(-c2ccc(-c3ccc(-c4c[nH]c([C@@H](NC(=O)C(C)(COCc5ccccc5)OC)C(C)(C)C)n4)cc3)cc2)c[nH]1)C(C)(C)C.O=C(O)C(F)(F)F.O=C(O)C(F)(F)F (single isomer, unassigned) [Compound W-232] | >100 fold
13 | COC(=O)NC(C)(C)C(=O)N[C@H](c1nc(-c2ccc(-c3ccc(-c4c[nH]c([C@@H](NC(=O)C(C)(C)NC(=O)OC)C(C)(C)C)n4)cc3)cc2)c[nH]1)C(C)(C)C [Compound Q-1] | >100 fold
14 | CC(C)CC(=O)N[C@H](c1ncc(-c2ccc(C#Cc3ccc(-c4cnc([C@@H](NC(=O)CC(C)C)C(C)(C)C)[nH]4)cc3)cc2)[nH]1)C(C)(C)C [Compound N-3] | >10 fold
15 | CC(O)C(C)(C)C(=O)N[C@H](c1ncc(-c2ccc(-c3ccc(-c4cnc([C@@H](NC(=O)C(C)(C)C(C)O)C(C)(C)C)[nH]4)cc3)cc2)[nH]1)C(C)(C)C (single isomer, unassigned) [Compound B78] | >100 fold
16 | CC(C)S(=O)(=O)CC(=O)N[C@H](c1nc(-c2ccc(-c3ccc(-c4cnc([C@@H](NC(=O)CS(=O)(=O)C(C)C)C(C)(C)C)[nH]4)cc3)cc2)c[nH]1)C(C)(C)C [Compound B-182] | >100 fold
17 | COC(=O)N[C@@H](C(=O)N[C@H](c1ncc(-c2ccc(-c3ccc(-c4cnc([C@@H](NC(=O)[C@H](NC(=O)OC)C5CC5)C(C)C)[nH]4)cc3)cc2)[nH]1)C(C)C)C1CC1 [Compound P-102] | >10 fold
18 | CC(C)(C)[C@H](NC(=O)[C@](C)(O)c1ccccc1)c1nc(-c2ccc(-c3ccc(-c4c[nH]c([C@@H](NC(=O)[C@](C)(O)c5ccccc5)C(C)(C)C)n4)cc3)cc2)c[nH]1 [Compound L-94] | >100 fold
19 | CC(C)[C@H](NC(=O)C1CCC1)c1ncc(-c2ccc(-c3ccc(-c4cnc([C@@H](NC(=O)C5CCC5)C(C)C)[nH]4)cc3)cc2)[nH]1 [Compound S-22] | >100 fold
20 | CC(C)(C)OC(=O)N1CCOCC1C(=O)NC(c1nc(-c2ccc(-c3ccc(-c4c[nH]c(C(NC(=O)C5COCCN5C(=O)OC(C)(C)C)C(C)(C)C)n4)cc3)cc2)c[nH]1)C(C)(C)C [Compound L-61] | >100 fold

Row | SMILES | Fold-Synergistic 1a (Q30E)
21 | CC1(C)CCCC(C)(C(=O)N[C@H](c2nc(-c3ccc(-c4ccc(-c5c[nH]c([C@@H](NC(=O)C6(C)CCCC(C)(C)O6)C(C)(C)C)n5)cc4)cc3)c[nH]2)C(C)(C)C)O1 (single isomer, unassigned) [Compound W-168] | >10 fold
22 | CC(C)(CO)C(=O)NC(c1nc(-c2ccc(-c3ccc(-c4c[nH]c(C(NC(=O)C(C)(C)CO)C(C)(C)C)n4)cc3)cc2)c[nH]1)C(C)(C)C [Compound L-56] | >100 fold
23 | CC1(C(=O)N[C@H](c2nc(-c3ccc(-c4ccc(-c5c[nH]c([C@@H](NC(=O)C6(C)CCCCC6)C(C)(C)C)n5)cc4)cc3)c[nH]2)C(C)(C)C)CCCCC1 [Compound P-47] | >100 fold
24 | CC(C)(C)[C@H](NC(=O)[C@@]1(C)CCC(F)(F)CO1)c1nc(-c2ccc(-c3cnc(-c4c[nH]c([C@@H](NC(=O)[C@@]5(C)CCC(F)(F)CO5)C(C)(C)C)n4)cn3)cc2)c[nH]1 [Compound N-130] | >100 fold
25 | CC1(C(=O)NC(c2nc(-c3ccc(-c4ccc(-c5c[nH]c(C(NC(=O)C6(C)CCCC(F)(F)CO6)C(C)(C)C)n5)cc4)cc3)c[nH]2)C(C)(C)C)CCCC(F)(F)CO1 (stereo not drawn) [Compound Y-92] | >100 fold
26 | CC(C)(C)[C@H](NC(=O)C1C(C)(C)C1(C)C)c1nc(-c2ccc(-c3ccc(-c4c[nH]c([C@@H](NC(=O)C5C(C)(C)C5(C)C)C(C)(C)C)n4)cc3)cc2)c[nH]1 [Compound N-55] | >100 fold
27 | CC1(C)C2CCC(C(=O)N[C@H](c3nc(-c4ccc(-c5ccc(-c6c[nH]c([C@@H](NC(=O)C78CCC(C7)C(C)(C)C8O)C7(C)CC7)n6)cc5)cc4)c[nH]3)C3(C)CC3)(C2)C1O (single isomer, unassigned) [Compound Y-119] | >100 fold
28 | CC(C)(C)C(NC(=O)C1(CO)CCCOC1)c1nc(-c2ccc(-c3ccc(-c4c[nH]c(C(NC(=O)C5(CO)CCCOC5)C(C)(C)C)n4)cc3)cc2)c[nH]1 (mixture of isomers) [Compound Y-101] | >100 fold
29 | CC1(C(=O)N[C@H](c2nc(-c3ccc(-c4ccc(-c5c[nH]c([C@@H](NC(=O)C6(C)CCOCC6)C(C)(C)C)n5)cc4)cc3)c[nH]2)C(C)(C)C)CCOCC1 [Compound W-130] | >100 fold
30 | CC(C)[C@H](NC(=O)c1cc(Cl)ccc1F)c1nc(-c2ccc3c(c2)CCc2cc(-c4c[nH]c([C@@H](NC(=O)c5cc(Cl)ccc5F)C(C)C)n4)ccc2-3)c[nH]1.O=C(O)C(F)(F)F [Compound N-76] | >100 fold
31 | CC(C)(C(=O)N[C@H](c1nc(-c2ccc(-c3ccc(-c4cnc([C@@H](NC(=O)C(C)(C)C5CCCO5)C(C)(C)C)[nH]4)cc3)cc2)c[nH]1)C(C)(C)C)C1CCCO1 (single isomer, unassigned) [Compound B170] | >100 fold
32 | CC(C)(C(=O)N[C@H](c1nc(-c2ccc(-c3ccc(-c4c[nH]c([C@@H](NC(=O)C(C)(C)C(O)C5CCC(F)(F)CC5)C(C)(C)C)n4)cc3)cc2)c[nH]1)C(C)(C)C)C(O)C1CCC(F)(F)CC1 (single isomer, unassigned) [Compound N-143A] | >100 fold
33 | CC(C)(C)[C@H](NC(=O)C(C)(C)n1cnnn1)c1nc(-c2ccc(-c3ccc(-c4c[nH]c([C@@H](NC(=O)C(C)(C)n5cnnn5)C(C)(C)C)n4)cc3)cc2)c[nH]1 [Compound S-277] | >100 fold
34 | CC(C)[C@H](NC(=O)c1cc(Cl)ccc1F)c1nc(-c2ccc(-c3ccc(-c4c[nH]c([C@@H](NC(=O)c5cc(Cl)ccc5F)C(C)C)n4)cc3F)cc2)c[nH]1.O=C(O)C(F)(F)F [Compound N-99] | >100 fold
35 | COC(C)(C)C(=O)N[C@H](c1nc(-c2ccc(-c3ccc(-c4c[nH]c([C@@H](NC(=O)C(C)(C)OC)C(C)(C)C)n4)c(F)c3)cc2)c[nH]1)C(C)(C)C.O=C(O)C(F)(F)F [Compound N-94] | >100 fold
36 | CC(C)(C)[C@H](NC(=O)C1CC2(C1)CC(F)(F)C2)c1nc(-c2ccc(-c3ccc(-c4c[nH]c([C@@H](NC(=O)C5CC6(C5)CC(F)(F)C6)C(C)(C)C)n4)cc3)cc2)c[nH]1 [Compound P-46] | >100 fold
37 | CC(C)[C@H](NC(=O)c1ccc2ccccc2c1)c1ncc(-c2ccc(-c3ccc(-c4cnc([C@@H](NC(=O)c5ccc6ccccc6c5)C(C)C)[nH]4)cc3)cc2)[nH]1 [Compound S-10] | >100 fold
38 | CC(C)[C@H](NC(=O)CCN1CCCC1=O)c1ncc(-c2ccc(-c3ccc(-c4cnc([C@@H](NC(=O)CCN5CCCC5=O)C(C)C)[nH]4)cc3)cc2)[nH]1 [Compound S-59] | <10 fold
39 | COC(CO)(CC(C)C)C(=O)N[C@H](c1nc(-c2ccc(-c3ccc(-c4c[nH]c([C@@H](NC(=O)C(CO)(CC(C)C)OC)C(C)(C)C)n4)cc3)cc2)c[nH]1)C(C)(C)C (single isomer, unassigned) [Compound N-160B] | >100 fold
